Assay results from patent US6544511B2, “Plant disease control agent” (Akatsuka Orchid Co., Ltd., priority 2000, dated 2003).
Numbered stars: 1 amine (or outer) side, 2 acyl side, 3 side chain; on linkers, the order of the positions; unused ones are H or OH. Bridge positions count the residues as written; N and C are the ends. Square brackets hold non-standard residues; d marks the D form. Peptide text beside a SMILES is read from it. I, II: the chains in the order shown. Actinocin(9to1) = Cc1c2oc3c(C)ccc(C(=O)[*:1])c3nc-2c(C(=O)[*:2])c(N)c1=O; NMeV = CN[C@H](C(=O)O)C(C)C; Sar = CNCC(=O)O

How the values were obtained:
[1] = system: Pestalotiopsis sydowiana MAFF No. 305755; assay: Antibiotic sensitivity test for pathogenic filamentous fungi (mycelial mat diameter); format: cell-based; conditions: for Sensitivity of Pestalotiopsis sydowiana against antibiotic: 0.1, 1, 10 μg/ml in potato sucrose agar medium, 3 days (FIGS. 12, 13)
Description: (§1) Pathogenic filamentous fungi were tested for their sensitivity against antibiotics belonging to actinomycin and polyen anti-fungal antibiotics shown to be produced by R-5 strain. First, actinomycin D or amphotericin B (polyen anti-fungal antibiotic) was dissolved to concentrations of 0.1, 1, and 10 μg/mil in potato sucrose agar medium cooled to about 45° C., and solidified. Mycelial disks with a diameter of 6 mm, which had been stamped out from mycelial mats of Phytophthora cinnamomi MAFF No. 305565 or Pestalotiopsis sydowiana MAFF No. 305755 pre-cultured for 7 days on potato sucrose agar medium, were inoculated onto the potato sucrose agar medium solidified as described above. Each diameter of the mycelial mats was measured with time for 3 days.

[2] = system: Phytophthora cinnamomi MAFF No. 305565; assay: as above; format: cell-based; conditions: for Sensitivity of Phytophthora cinnamomi against antibiotic: 0.1, 1, 10 μg/ml in potato sucrose agar medium, 3 days (FIGS. 10, 11)
Description: as §1

C[C@@H]1[C@H](O)[C@@H](C)/C=C/C=C/C=C/C=C/C=C/C=C/C=C/[C@H](O[C@@H]2O[C@H](C)[C@@H](O)[C@H](N)[C@@H]2O)C[C@@H]2O[C@](O)(C[C@@H](O)C[C@@H](O)[C@H](O)CC[C@@H](O)C[C@@H](O)CC(=O)O[C@H]1C)C[C@H](O)[C@H]2C(=O)O [amphotericin B]
Growth of the mycelia of Pestalotiopsis sydowiana ([1]; 0.1 μg/ml): completely suppressed the growth of the mycelia | Sensitivity of Pestalotiopsis sydowiana against antibiotic [1]: high sensitivity | Sensitivity of Phytophthora cinnamomi against antibiotic [2]: almost no sensitivity

Cc1c2oc3c(C)ccc(C(=O)N[C@@H]4C(=O)N[C@H](C(C)C)C(=O)N5CCC[C@H]5C(=O)N(C)CC(=O)N(C)[C@@H](C(C)C)C(=O)O[C@@H]4C)c3nc-2c(C(=O)N[C@@H]2C(=O)N[C@H](C(C)C)C(=O)N3CCC[C@H]3C(=O)N(C)CC(=O)N(C)[C@@H](C(C)C)C(=O)O[C@@H]2C)c(N)c1=O [actinomycin D] (I: T[dV]P[Sar][NMeV] / II: T[dV]P[Sar][NMeV]; ester I:1-I:C, II:1-II:C; linker I:N-II:N via Actinocin(9to1))
Growth of the mycelia of Pestalotiopsis sydowiana ([1]; 10 μg/ml): significantly suppressed the growth | Sensitivity of Pestalotiopsis sydowiana against antibiotic [1]: weak sensitivity | Growth of the mycelial mat of Phytophthora cinnamomi ([2]; 10 μg/ml): completely stopped the growth | Sensitivity of Phytophthora cinnamomi against antibiotic [2]: showed sensitivity
